Data as given in patent US8383637B2, “2-amino-quinazoline derivatives useful as inhibitors of β-secretase (BACE)” (Jansssen Pharmaceutica N.V., priority 2004, dated 2013).

Molecular target: T1, β-secretase(BACE) (Homo sapiens, UniProt P56817)
T1 construct: purchased Panvera
Assay: BACE FS1% Inhibition Assay
Format: biochemical
Details: FS1 substrate; for % Inhibition (FS) 10 μM: 10 μM test compound
In short: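 Human BACE (4 μg/mL working solution) preincubated 20 min at room temperature with compound, then FS1 substrate (300 μg/mL working solution) added and incubated 1 h at room temperature. Percent inhibition calculated at each compound concentration against blank and vehicle controls.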

T1 sequence (P56817 46-501): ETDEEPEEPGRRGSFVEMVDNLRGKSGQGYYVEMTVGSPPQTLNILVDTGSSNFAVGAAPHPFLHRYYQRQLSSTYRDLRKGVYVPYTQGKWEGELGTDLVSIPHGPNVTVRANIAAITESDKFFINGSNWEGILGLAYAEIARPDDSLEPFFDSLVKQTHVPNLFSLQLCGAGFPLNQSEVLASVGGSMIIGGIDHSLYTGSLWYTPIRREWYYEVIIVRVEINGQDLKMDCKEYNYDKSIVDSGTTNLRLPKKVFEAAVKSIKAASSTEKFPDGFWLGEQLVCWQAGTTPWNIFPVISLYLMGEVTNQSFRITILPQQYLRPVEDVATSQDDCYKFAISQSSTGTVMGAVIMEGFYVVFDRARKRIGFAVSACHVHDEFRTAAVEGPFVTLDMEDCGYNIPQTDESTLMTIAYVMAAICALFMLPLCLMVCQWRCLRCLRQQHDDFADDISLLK

% Inhibition (FS) 0.3 μM (0.3 μM test compound) [%]	% Inhibition (FS) 1 μM (1 μM test compound) [%]	% Inhibition (FS) 3 μM (3 μM test compound) [%]	SMILES	other results
<30	<30	<30	CCCC=Cc1ccc2c(c1)CN(CCNC(=O)c1cc(C)oc1C)C(N)=N2 [Compound 587]	
<30	<30	36	CC(=O)c1cccc(-c2ccc3c(c2)CN(CCNC(=O)Cc2ccccc2)C(N)=N3)c1 [Compound 598]	
<30	<30	<30	CN(C(=O)CCC(CO)N1Cc2cc(Oc3ccccc3)ccc2N=C1N)C1CCCCC1 (stereo not drawn) [Compound 557]	
		<30	CCCCc1ccc(C(=O)NCCN2Cc3cc(Oc4ccccc4)ccc3N=C2N)cc1 [Compound 157]	% Inhibition (FS) 10 μM: 50%
67	105	111	CC(C)(C)OC(=O)NCC(C1CCCCC1)N1Cc2cc(Oc3ccccc3)ccc2N=C1N (stereo not drawn) [Compound 257]	
<30	33	<30	CN(C(=O)c1cccc(CN2Cc3cc(-c4cccc(C(=O)O)c4)ccc3N=C2N)c1)C1CCCCC1 [Compound 163]	
<30	<30	<30	CC(=O)Nc1ccc(C(=O)NCCN2Cc3cc(-c4cccc(C(F)(F)F)c4)ccc3N=C2N)cc1 [Compound 594]	
<30	<30	<30	Cc1cc(C(=O)NCCN2Cc3cc(-c4cccc(C(F)(F)F)c4)ccc3N=C2N)c(C)o1 [Compound 590]	

Further lines, the molecule ahead of its results:

SMILES	% Inhibition (FS) 0.3 μM (0.3 μM test compound) [%]	% Inhibition (FS) 1 μM (1 μM test compound) [%]	% Inhibition (FS) 3 μM (3 μM test compound) [%]	other results
NC1=Nc2ccc(-c3ccc4ccccc4c3)cc2CN1CCNC(=O)CCC(F)(F)F [Compound 686]				% Inhibition (FS) (0.3 μM test compound): <30%; % Inhibition (FS) (1 μM test compound): 73%; % Inhibition (FS) (3 μM test compound): 80%
N#Cc1cccc(C(=O)NCCN2Cc3cc(Br)ccc3N=C2N)c1 [Compound 807]				inhibition at 0.3 µM (0.3 μM test compound, read-out: % Inhibition (FS)): < 30%; inhibition at 1 µM (1 μM test compound, read-out: % Inhibition (FS)): < 30%; inhibition at 3 µM (3 μM test compound, read-out: % Inhibition (FS)): < 30%
NC1=Nc2ccc(-c3ccccc3F)cc2CN1CCNC(=O)C1CCC(C(F)(F)F)CC1 (stereo not drawn) [Compound 688]				% Inhibition (FS) (0.3 μM test compound): <30%; % Inhibition (FS) (1 μM test compound): 36%; % Inhibition (FS) (3 μM test compound): 81%
NC1=Nc2ccc(Oc3ccccc3)cc2CN1CCCNC(=O)C1CCC1 [Compound 144]			39	% Inhibition (FS) 10 μM: 59%
CCCC(CCC(=O)NC1CCCCCC1)N1Cc2cc(Oc3ccccc3)ccc2N=C1N (stereo not drawn) [Compound 128]			97	% Inhibition (FS) 10 μM: 108%
NC1=Nc2ccc(-c3ccccc3)cc2CN1CCNC(=O)C1CCC(C(F)(F)F)CC1 (stereo not drawn) [Compound 701]				% Inhibition (FS) (0.3 μM test compound): <30%; % Inhibition (FS) (1 μM test compound): <30%; % Inhibition (FS) (3 μM test compound): 54%
CN(C(=O)c1cccc(CN2Cc3cc(OCc4ccccc4-c4ccccc4)ccc3N=C2N)c1)C1CCCCC1 [Compound 513]	<30	<30	<30	
NC1=Nc2ccc(Oc3ccccc3)cc2CN1CCCNC1CCCCC1 [Compound 403]	<30	<30	66	
CN(C(=O)CCC(C1CCCCC1)N1Cc2cc(Oc3ccccc3)ccc2N=C1N)c1ccc(C(=O)O)cc1 (stereo not drawn) [Compound 766]				% Inhibition (FS) (0.3 μM test compound): <30%; % Inhibition (FS) (1 μM test compound): <30%; % Inhibition (FS) (3 μM test compound): <30%
NC1=Nc2ccc(Oc3ccccc3)cc2CN1C(CNC(=O)C1CCCCC1)Cc1ccc(O)cc1 (stereo not drawn) [Compound 614]	<30	<30	<30	
CC(C)C(CC(=O)NC1C2CC3CC(C2)CC1C3)N1Cc2cc(Oc3ccccc3)ccc2N=C1N (stereo not drawn) [Compound 402]	<30	53	99	
COc1ccc(C)cc1Oc1ccc2c(c1)CN(Cc1cccc(C(=O)N(C)C3CCCCC3)c1)C(N)=N2 [Compound 467]	<30	<30	<30	
